For this test, the target named is T1, ROCKII or ROKα (Homo sapiens, UniProt O75116).
T1 construct: purchased Upstate 14-451
T1 sequence (O75116 whole entry): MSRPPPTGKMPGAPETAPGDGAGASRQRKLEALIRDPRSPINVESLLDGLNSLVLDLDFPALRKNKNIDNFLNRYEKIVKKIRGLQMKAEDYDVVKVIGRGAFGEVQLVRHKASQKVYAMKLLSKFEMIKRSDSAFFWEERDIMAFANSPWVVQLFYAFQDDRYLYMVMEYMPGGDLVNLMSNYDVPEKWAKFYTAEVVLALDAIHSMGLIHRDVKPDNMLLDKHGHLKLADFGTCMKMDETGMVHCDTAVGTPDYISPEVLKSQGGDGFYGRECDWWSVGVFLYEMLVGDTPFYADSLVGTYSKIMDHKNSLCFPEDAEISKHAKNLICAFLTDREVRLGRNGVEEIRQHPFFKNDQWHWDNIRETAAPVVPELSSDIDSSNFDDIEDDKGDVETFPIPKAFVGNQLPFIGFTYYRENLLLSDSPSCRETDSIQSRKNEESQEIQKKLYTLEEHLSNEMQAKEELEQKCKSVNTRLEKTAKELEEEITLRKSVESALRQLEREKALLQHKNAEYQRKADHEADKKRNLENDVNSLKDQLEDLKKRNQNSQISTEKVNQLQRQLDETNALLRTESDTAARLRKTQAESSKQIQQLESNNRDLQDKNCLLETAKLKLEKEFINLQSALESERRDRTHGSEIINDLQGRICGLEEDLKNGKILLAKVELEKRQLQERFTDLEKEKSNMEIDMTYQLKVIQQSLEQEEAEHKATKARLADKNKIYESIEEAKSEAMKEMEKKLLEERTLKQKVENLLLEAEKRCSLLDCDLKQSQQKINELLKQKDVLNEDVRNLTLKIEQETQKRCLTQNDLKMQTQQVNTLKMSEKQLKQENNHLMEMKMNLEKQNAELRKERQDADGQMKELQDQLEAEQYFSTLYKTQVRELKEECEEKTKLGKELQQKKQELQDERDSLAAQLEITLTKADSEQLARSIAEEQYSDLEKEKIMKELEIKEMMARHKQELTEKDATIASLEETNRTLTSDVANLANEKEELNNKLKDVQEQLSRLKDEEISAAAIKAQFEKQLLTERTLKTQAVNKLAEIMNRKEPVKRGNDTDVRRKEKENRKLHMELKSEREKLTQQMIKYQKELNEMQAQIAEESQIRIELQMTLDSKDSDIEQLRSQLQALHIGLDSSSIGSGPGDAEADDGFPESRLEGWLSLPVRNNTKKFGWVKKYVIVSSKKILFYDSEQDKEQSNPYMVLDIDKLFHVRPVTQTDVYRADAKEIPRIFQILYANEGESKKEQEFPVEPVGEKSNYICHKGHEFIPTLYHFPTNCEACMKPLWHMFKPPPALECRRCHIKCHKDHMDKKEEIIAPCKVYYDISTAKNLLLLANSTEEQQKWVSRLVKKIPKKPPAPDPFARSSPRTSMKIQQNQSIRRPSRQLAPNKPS
The experiment in a line: Determination of Rho kinase inhibition (33P-ATP Flash Plate assay). Type of test: biochemical. Conditions: ATP 40 μM, respective form (salt or free base) as obtained in the examples. Here is the method: Determination of Rho Kinase Inhibition
To measure Rho-kinase inhibition, IC50 values were determined according to the following protocol:
Buffer: 25 mM Tris pH7.5; 0.02% BSA; 5% Glycerol; 0.008% Triton X100; 2% DMSO, 1 mM DTT; 1 mM MgCl2; 0.5 μCi/well γ^33P ATP
Enzyme: ROCKII or ROKα) (Upstate, Catalog #14-451) 0.1 ng/μl
Final concentration of ATP in reaction mixture 40 μM
Biotinylated substrate, diluted to 0.25 μM with buffer described above (without ATP) • 1. 10 μl Tris buffer (±Inhibitor) • 2. Add 30 μL of enzyme solution • 3. Start the reaction with 30 μL of mix substrate/ATP/ATP33 • 4. Incubate for 20 min at room temperature • 5. Stop reaction with 30 μL of 50 mM EDTA • 6. Transfer 50 μL of stopped solution to Streptavidin Flash Plate plus, Perkin Elmer, SMP 103A • 7. Incubate for 30 min at RT • 8. Wash 4 times with 300 μl of PBS/0.1% Tween 20 • 9. Radioactivity in the well was determined
The following products/compounds were tested in said assay by using the respective form (salt or free base) obtained as in the examples described above and the following activities were measured.
As for `CCN(CC)[C@H]1CC[C@H](Oc2cc3cc[nH]c(=O)c3cc2Cl)CC1` [Example 56], the pIC50 result was “+++++ (6.0≦pIC50)”. On to `O=c1[nH]ccc2cc(O[C@H]3CC[C@@H](N(CC4CC4)CC4CC4)CC3)c(Cl)cc12` [Example 41], for which the pIC50 entry is reported as “+++++ (6.0≦pIC50)”.

As to `CC(C)N[C@H]1CC[C@@H](Oc2ccc3c(=O)[nH]ccc3c2Cl)CC1` [Example 46], the pIC50 entry was “+++++ (6.0≦pIC50)”. In the case of `CCCCN[C@H]1CC[C@@H](Oc2ccc3c(=O)[nH]ccc3c2Cl)CC1` [Example 45], the pIC50 result is reported as “+++++ (6.0≦pIC50)”. As for `O=c1[nH]ccc2c(Cl)c(O[C@H]3CC[C@@H](NCC4CC4)CC3)ccc12` [Example 48], the pIC50 result is given as “+++++ (6.0≦pIC50)”. On to `O=c1[nH]ccc2cc(O[C@H]3CC[C@@H](NCc4ccc5ccccc5c4)CC3)c(Cl)cc12` [Example 77], for which the pIC50 result is “+++++ (6.0≦pIC50)”. Then `N[C@H]1CC[C@H](Oc2ccc3c(=O)[nH]ccc3c2)CC1` [Example 20, trans-6-(4-Amino-cyclohexyloxy)-2H-isoquinolin-1-one], with “+++++ (6.0≦pIC50)”; and `CC(C)CN(CC(C)C)[C@H]1CC[C@H](Oc2cc3cc[nH]c(=O)c3cc2Cl)CC1` [Example 65], with “+++++ (6.0≦pIC50)”.

In the case of `N[C@H]1CC[C@@H](Oc2ccc3c(=O)[nH]ccc3c2Cl)CC1` [Example 11, 6-(cis-4-Amino-cyclohexyloxy)-5-chloro-2H-isoquinolin-1-one], the pIC50 entry is listed as “+++++ (6.0≦pIC50)”. Turning to `CCCCN(CCCC)[C@H]1CC[C@@H](Oc2ccc3c(=O)[nH]ccc3c2Cl)CC1` [Example 53], the pIC50 result is on record as “++++ (5.0≦pIC50<6.0)”.

As for `CCCN[C@H]1CC[C@@H](Oc2ccc3c(=O)[nH]ccc3c2Cl)CC1` [Example 44], the pIC50 result is listed as “+++++ (6.0≦pIC50)”. Regarding `O=c1[nH]ccc2cc(O[C@H]3CC[C@@H](NCc4cc(Cl)cc(Cl)c4)CC3)c(Cl)cc12` [Example 69], the pIC50 entry was “+++++ (6.0≦pIC50)”.

Take `N[C@H]1CC[C@H](Oc2cc3cc[nH]c(=O)c3cc2Cl)CC1` [Example 14, 6-(trans-4-Amino-cyclohexyloxy)-7-chloro-isoquinolin-1-ol]: the pIC50 entry is “+++++ (6.0≦pIC50)”.

`N[C@H]1CC[C@@H](Oc2cc3cc[nH]c(=O)c3cc2Cl)CC1` [Example 10, 6-(cis-4-Amino-cyclohexyloxy)-7-chloro-2H-isoquinolin-1-one]: the pIC50 entry is on record as “+++++ (6.0≦pIC50)”. Then `O=c1[nH]ccc2cc(O[C@H]3CC[C@@H](NC4CC4)CC3)c(Cl)cc12` [Example 12, 7-Chloro-6-(cis-4-cyclopropylamino-cyclohexyloxy)-2H-isoquinolin-1-one], with “+++++ (6.0≦pIC50)”; and `O=c1[nH]ccc2cc(O[C@H]3CC[C@@H](NCc4ccc(Cl)cc4Cl)CC3)c(Cl)cc12` [Example 71], with “+++++ (6.0≦pIC50)”. On to `CCN[C@H]1CC[C@@H](Oc2cc3cc[nH]c(=O)c3cc2Cl)CC1` [Example 29], for which the pIC50 entry is “+++++ (6.0≦pIC50)”. Take `Cc1cc2c(=O)[nH]ccc2cc1O[C@H]1CC[C@@H](N)CC1.Cl` [Example 138, 6-(cis-4-Amino-cyclohexyloxy)-7-methyl-2H-isoquinolin-1-one]: the pIC50 entry is “+++++ (6.0≦pIC50)”. For `O=c1[nH]ccc2cc(O[C@H]3CC[C@H](N(CC4CC4)CC4CC4)CC3)c(Cl)cc12` [Example 66], the pIC50 entry is on record as “++++ (5.0≦pIC50<6.0)”.

In the case of `O=c1[nH]ccc2cc(O[C@H]3CC[C@@H](NCc4cccc(Cl)c4)CC3)c(Cl)cc12` [Example 37], the pIC50 entry is given as “+++++ (6.0≦pIC50)”.

With `O=c1[nH]ccc2cc(O[C@H]3CC[C@@H](NCC4CC4)CC3)ccc12` [Example 125, 6-[cis-4-(Cyclopropylmethyl-amino)-cyclohexyloxy]-2H-isoquinolin-1-one], the pIC50 entry is reported as “+++++ (6.0≦pIC50)”. The result for `O=c1[nH]ccc2cc(O[C@H]3CC[C@@H](NCc4cc(Cl)ccc4Cl)CC3)c(Cl)cc12` [Example 70] reads “+++++ (6.0≦pIC50)”; that for `O=c1[nH]ccc2cc(O[C@H]3CC[C@@H](NCc4ccccc4)CC3)c(Cl)cc12` [Example 67], “+++++ (6.0≦pIC50)”.

Take `O=c1[nH]ccc2cc(O[C@H]3CC[C@@H](N(C4CC4)C4CC4)CC3)c(Cl)cc12` [Example 13, 7-Chloro-6-(cis-4-dicyclopropylamino-cyclohexyloxy)-2H-isoquinolin-1-one]: the pIC50 entry was “+++++ (6.0≦pIC50)”. `CCCCN[C@H]1CC[C@H](Oc2cc3cc[nH]c(=O)c3cc2Cl)CC1` [Example 58]: the pIC50 entry is listed as “+++++ (6.0≦pIC50)”. On to `Cc1cc2c(=O)[nH]ccc2cc1O[C@H]1CC[C@H](N)CC1` [Example 137, 6-(trans-4-Amino-cyclohexyloxy)-7-methyl-2H-isoquinolin-1-one], for which the pIC50 result is “+++++ (6.0≦pIC50)”.

These data come from patent US8796458B2, “Cyclohexylamine isoquinolone derivatives” (Sanofi, priority 2005, dated 2014).
